Results as given in ChEMBL document CHEMBL1909524, “Discovery of a novel series of cyclic urea as potent CCR5 antagonists” (Bioorg Med Chem Lett, 2011).

Key:
[1] = test system: Human immunodeficiency virus 1; test: Antiviral activity against HIV1 Ba-L infected in human PBL cells assessed as reduction of viral replication after 4 days by Steady-Glo luciferase assay; type: functional, organism-based; conditions: Human immunodeficiency virus 1, Ba-L, 96 h
PBL = test: Cytotoxicity against human PBL cells assessed as cell death up to 1 uM by celltiter glo assay; type: cell-based
HOS = test: Cytotoxicity against human HOS cells assessed as cell death up to 1 uM by celltiter glo assay; type: cell-based
[2] = test system: Human immunodeficiency virus 1; test: Antiviral activity against HIV1 Ba-L infected in human HOS cells assessed as reduction of viral replication after 4 days by Steady-Glo luciferase assay; type: functional, organism-based; conditions: Human immunodeficiency virus 1, Ba-L, 96 h
[3] = Stability of the compound in fasted stimulated intestinal fluid within 1000 hrs; type: physicochemical; conditions: simulated gi fluid
[4] = Clearance in monkey at 1 mg/kg, po; type: ADME, organism-based, Macaca mulatta; set-up: dose 1 mg/kg, route oral; conditions: rhesus monkey, in vivo
[5] = Half life in dog at 1 mg/kg, iv; type: ADME, organism-based, Canis lupus familiaris; set-up: dose 1 mg/kg, route intravenous; conditions: in vivo
[6] = Oral bioavailability in monkey at 1 mg/kg; type: ADME, organism-based, Macaca mulatta; conditions: rhesus monkey, in vivo
[7] = Half life in monkey at 1 mg/kg, iv; type: ADME, organism-based, Macaca mulatta; set-up: dose 1 mg/kg, route intravenous; conditions: rhesus monkey, in vivo
[8] = Clearance in rat; type: ADME, organism-based; conditions: in vivo
[9] = Clearance in dog at 1 mg/kg, po; type: ADME, organism-based, Canis lupus familiaris; set-up: dose 1 mg/kg, route oral; conditions: in vivo
[10] = Oral bioavailability in dog at 1 mg/kg; type: ADME, organism-based, Canis lupus familiaris; conditions: in vivo
[11] = Stability of the compound in fasted stimulated intestinal fluid assessed as half life at pH 6; type: physicochemical; conditions: fasted simulated intestinal fluid
[12] = Metabolic stability of the compound in fasted stimulated intestinal fluid; type: physicochemical; conditions: simulated gi fluid

SMILES | IC50 [1] [nM] | IC50 [2] [nM] | Activity (PBL) | Activity (HOS) | other results
Cc1nc(Oc2ccc(NS(C)(=O)=O)cc2)ccc1CN1CCC(N(Cc2ccccc2F)C(=O)Nc2cc(C(N)=O)c(F)cc2F)CC1 | 0.9 | 1.7 | – | – | –
Cc1nc(Oc2ccc(S(C)(=O)=O)cc2)ccc1CN1CCC(N2C(=O)N(c3cc(C(N)=O)c(F)cc3F)C[C@H]2c2ccccc2)CC1 | 1 | 4 | Non-toxic | Non-toxic | Stability [3]: Stable; CL/F [4]: 20.2 mL/min/kg; half-life [5]: 6.9 h; bioavailability [6]: 110%; half-life [7]: 1.4 h; clearance [8]: 27 mL/min/kg; CL/F [9]: 2.1 mL/min/kg; bioavailability [10]: 76%
Cc1nc(Oc2ccc(CC(=O)NC(C)C)cc2)ccc1CN1CCC(N2C(=O)N(c3cc(C(N)=O)c(F)cc3F)C[C@H]2c2ccccc2)CC1 | 0.5 | 3.3 | Non-toxic | Non-toxic | –
Cc1cc(S(C)(=O)=O)ccc1Oc1ccc(CN2CCC(N3C(=O)N(c4cc(C(N)=O)c(F)cc4F)C[C@H]3c3ccccc3)CC2)c(C)n1 | – | 5.4 | Non-toxic | Non-toxic | –
Cc1nc(Oc2ccc(NS(C)(=O)=O)cc2)ccc1CN1CCC(N(C(=O)Oc2ccc(F)c(C(N)=O)c2)c2cccc(F)c2)CC1 | – | 29 | – | – | –
Cc1nc(Oc2ccc(S(C)(=O)=O)cc2)ccc1CN1CCC(N2C(=O)N(c3cc(C(N)=O)c(F)cc3F)CC2c2ccccc2)CC1 (racemic) | 2 | 12 | – | – | –

Further lines, with some results ahead:

IC50 [1] [nM] | IC50 [2] [nM] | SMILES | Activity (PBL) | Activity (HOS) | other results
0.6 | 5.2 | Cc1nc(Oc2ccc(S(C)(=O)=O)cc2F)ccc1CN1CCC(N2C(=O)N(c3cc(C(N)=O)c(F)cc3F)C[C@H]2c2ccccc2)CC1 | Non-toxic | Non-toxic | –
1.1 | 3.6 | Cc1nc(Oc2ccc(S(=O)(=O)C(C)C)cc2)ccc1CN1CCC(N2C(=O)N(c3cc(C(N)=O)c(F)cc3F)C[C@H]2c2ccccc2)CC1 | Non-toxic | Non-toxic | –
289 | 213 | Cc1nc(Oc2ccc(S(C)(=O)=O)cc2)ccc1CN1CCC(N2C(=O)N(c3cc(C(N)=O)c(F)cc3F)C[C@@H]2c2ccccc2)CC1 | – | – | –
0.6 | 2 | Cc1nc(Oc2ccc(NS(C)(=O)=O)cc2)ccc1CN1CCC(N(C(=O)Nc2cc(C(N)=O)c(F)cc2F)c2cccc(F)c2)CC1 | – | – | half-life [11]: 334 h
– | 14 | Cc1nc(Oc2ccc(NS(C)(=O)=O)cc2)ccc1CN1CCC(N2C(=O)N(c3cc(C(N)=O)c(F)cc3F)C(=O)C2c2ccccc2)CC1 (racemic) | – | – | Stability [12]: Unstable
1.6 | 2.6 | CC(C)c1nc(Oc2ccc(S(C)(=O)=O)cc2)ccc1CN1CCC(N2C(=O)N(c3cc(C(N)=O)c(F)cc3F)C[C@H]2c2ccccc2)CC1 | Non-toxic | Non-toxic | –
